Data: patent US7612211B2, “Benzimidazole TRPV1 inhibitors” (Janssen Pharmaceutica N.V., priority 2006, dated 2009)

Molecular target: T1, hTRPV1 (Homo sapiens, UniProt Q8NER1)
T1 construct: expressed in transfected cells; host or cells: HEK293
Test: Human TRPV1 (hTRPV1) functional assay, FLIPR intracellular Ca2+, capsaicin challenge
Assay type: cell-based
Details: HEK293 cells expressing hTRPV1, capsaicin 0.030 μM challenge; for inhibition at 0.5 µM: test concentration of 0.5 μm, read-out: percent inhibition (symbol a); for IC50: derived from a variety of test concentrations, read-out: IC50 value (symbol c)
Method: The functional activity of the test compounds was determined by measuring changes in intracellular calcium concentration using a Ca^++-sensitive fluorescent dye and FLIPR™ technology. Increases in Ca^++ concentration were readily detected upon challenge with capsaicin.
HEK293 cells expressing hTRPV1 were grown on poly-D-lysine coated 384 well black-walled plates (BD 354663) and 1 day later loaded with Calcium 3 Dye for 35 min at 37° C., 5% CO2 and then for 25 min at room temperature, and subsequently tested for agonist-induced increases in intracellular Ca^2+ levels using FLIPR™ technology. Cells were challenged with test compounds (at varying concentrations) and intracellular Ca^2+ was measured for 5 min prior to the addition of capsaicin to all wells to achieve a final concentration of 0.030 μM eliciting ˜80% maximal response.
EC50 or IC50 values were determined from concentration-response studies, which were generated using the average of quadruplicate wells for each data point. The symbol “a” represents percent inhibition obtained at a test concentration of 0.5 μm; the symbol “b” represents percent inhibition obtained at a test concentration of 0.2 μm; the symbol “c” represents an IC50 value (nM) derived from a variety of test concentrations. The term “NA” means that the result is not applicable for a particular compound.

T1 sequence (Q8NER1 whole entry): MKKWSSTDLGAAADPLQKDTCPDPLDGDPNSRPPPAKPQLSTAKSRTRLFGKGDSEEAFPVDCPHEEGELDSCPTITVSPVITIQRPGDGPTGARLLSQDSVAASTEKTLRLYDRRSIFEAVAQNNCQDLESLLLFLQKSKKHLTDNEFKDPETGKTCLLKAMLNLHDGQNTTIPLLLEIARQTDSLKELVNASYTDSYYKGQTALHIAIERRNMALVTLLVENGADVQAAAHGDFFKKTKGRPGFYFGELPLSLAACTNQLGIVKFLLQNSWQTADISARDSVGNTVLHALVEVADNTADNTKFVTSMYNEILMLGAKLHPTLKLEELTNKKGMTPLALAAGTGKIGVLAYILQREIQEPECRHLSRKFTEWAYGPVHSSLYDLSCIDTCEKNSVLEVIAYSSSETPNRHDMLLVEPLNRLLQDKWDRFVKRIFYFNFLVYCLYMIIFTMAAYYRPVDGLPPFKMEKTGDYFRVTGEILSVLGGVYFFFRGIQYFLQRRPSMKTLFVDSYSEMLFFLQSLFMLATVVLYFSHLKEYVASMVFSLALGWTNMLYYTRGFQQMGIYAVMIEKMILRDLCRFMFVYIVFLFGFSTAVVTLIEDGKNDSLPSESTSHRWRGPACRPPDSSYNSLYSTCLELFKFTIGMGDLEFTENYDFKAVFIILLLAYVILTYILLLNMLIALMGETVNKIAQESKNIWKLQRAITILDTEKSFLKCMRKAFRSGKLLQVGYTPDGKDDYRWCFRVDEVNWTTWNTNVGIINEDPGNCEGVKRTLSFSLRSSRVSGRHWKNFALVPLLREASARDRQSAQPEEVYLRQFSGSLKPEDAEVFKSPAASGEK

Row | inhibition at 0.5 µM [%] | IC50 [nM] | inhibition at 0.2 µM (test concentration of 0.2 μm, read-out: percent inhibition (symbol b)) [%] | SMILES
1 | 100 | 19 |  | CC(C)(O)c1ccccc1-c1ccc2[nH]c(COc3ccc(Cl)cc3)nc2c1 [Cpd 23, 2-{2-[2-(4-chloro-phenoxymethyl)-1H-benzoimidazol-5-yl]-phenyl}-propan-2-ol]
2 | 92 | 156 |  | CC(C)(O)c1ccccc1-c1ccc2[nH]c(COc3cccc(C(F)(F)F)c3)nc2c1 [Cpd 24, 2-{2-[2-(3-trifluoromethyl-phenoxymethyl)-1H-benzoimidazol-5-yl]-phenyl}-propan-2-ol]
3 | 100 | 13 |  | CC(C)(O)c1ccccc1-c1ccc2[nH]c(COc3ccc(S(C)(=O)=O)cc3)nc2c1 [Cpd 25, 2-{2-[2-(4-methanesulfonyl-phenoxymethyl)-1H-benzoimidazol-5-yl]-phenyl}-propan-2-ol]
4 | 87 | 177 |  | NS(=O)(=O)c1ccccc1-c1ccc2[nH]c(COc3ccccc3)nc2c1 [Cpd 26, 2-(2-phenoxymethyl-1H-benzoimidazol-5-yl)-benzenesulfonamide]
5 | 98 | 12 |  | Cc1ccc(OCc2nc3cc(-c4ccccc4S(N)(=O)=O)ccc3[nH]2)cc1 [Cpd 27, 2-(2-p-tolyloxymethyl-1H-benzoimidazol-5-yl)-benzenesulfonamide]
6 | 98 | 8.9 |  | CC(C)c1ccc(OCc2nc3cc(-c4ccccc4S(N)(=O)=O)ccc3[nH]2)cc1 [Cpd 28, 2-[2-(4-isopropyl-phenoxymethyl)-1H-benzoimidazol-5-yl]-benzenesulfonamide]
7 | 98 | 22 |  | NS(=O)(=O)c1ccccc1-c1ccc2[nH]c(COc3ccc(Cl)c(Cl)c3)nc2c1 [Cpd 29, 2-[2-(3,4-dichloro-phenoxymethyl)-1H-benzoimidazol-5-yl]-benzenesulfonamide]
8 | 99 | 13 |  | NS(=O)(=O)c1ccccc1-c1ccc2[nH]c(COc3ccc(Cl)c(C(F)(F)F)c3)nc2c1 [Cpd 30, 2-[2-(4-chloro-3-trifluoromethyl-phenoxymethyl)-1H-benzoimidazol-5-yl]-benzenesulfonamide]
9 | 97 | 10.6 |  | NS(=O)(=O)c1ccccc1-c1ccc2[nH]c(COc3cc(C(F)(F)F)cc(C(F)(F)F)c3)nc2c1 [Cpd 31, 2-[2-(3,5-bis-trifluoromethyl-phenoxymethyl)-1H-benzoimidazol-5-yl]-benzenesulfonamide]
10 |  | 6 | 100 | CC(C)(C)c1ccc(OCc2nc3cc(-c4ccccc4S(N)(=O)=O)ccc3[nH]2)cc1 [Cpd 32, 2-[2-(4-tert-butyl-phenoxymethyl)-1H-benzoimidazol-5-yl]-benzenesulfonamide]
11 | 100 | 44 |  | CCOc1ccc(OCc2nc3cc(-c4ccccc4S(N)(=O)=O)ccc3[nH]2)cc1 [Cpd 33, 2-[2-(4-ethoxy-phenoxymethyl)-1H-benzoimidazol-5-yl]-benzenesulfonamide]
12 | 100 | 13 |  | NS(=O)(=O)c1ccccc1-c1ccc2[nH]c(COc3ccc(SC(F)(F)F)cc3)nc2c1 [Cpd 34, 2-[2-(4-trifluoromethylsulfanyl-phenoxymethyl)-1H-benzoimidazol-5-yl]-benzenesulfonamide]
13 | 97 | 16 |  | CC(=O)c1ccc(OCc2nc3cc(-c4ccccc4S(N)(=O)=O)ccc3[nH]2)cc1 [Cpd 35, 2-[2-(4-acetyl-phenoxymethyl)-1H-benzoimidazol-5-yl]-benzenesulfonamide]
14 | 98 | 32 |  | NS(=O)(=O)c1ccccc1-c1ccc2[nH]c(COc3ccc4ccccc4c3)nc2c1 [Cpd 36, 2-[2-(naphthalen-2-yloxymethyl)-1H-benzoimidazol-5-yl]-benzenesulfonamide]
15 | 50 |  |  | NS(=O)(=O)c1ccccc1-c1ccc2[nH]c(COc3ccc4ncccc4c3)nc2c1 [Cpd 37, 2-[2-(quinolin-6-yloxymethyl)-1H-benzoimidazol-5-yl]-benzenesulfonamide]
16 | 13 |  |  | NS(=O)(=O)c1ccccc1-c1ccc2[nH]c(COc3ccncc3)nc2c1 [Cpd 38, 2-[2-(pyridin-4-yloxymethyl)-1H-benzoimidazol-5-yl]-benzenesulfonamide]
17 | 5 |  |  | NS(=O)(=O)c1ccccc1-c1ccc2[nH]c(COc3ccc(C(F)(F)F)cn3)nc2c1 [Cpd 39, 2-[2-(5-trifluoromethyl-pyridin-2-yloxymethyl)-1H-benzoimidazol-5-yl]-benzenesulfonamide]
18 | 100 | 8.6 |  | Cn1c(COc2ccc(C(F)(F)F)cc2)nc2cc(-c3ccccc3S(N)(=O)=O)ccc21 [Cpd 40, 2-[1-methyl-2-(4-trifluoromethyl-phenoxymethyl)-1H-benzoimidazol-5-yl]-benzenesulfonamide]

The remaining lines, values behind:

Row | SMILES | inhibition at 0.5 µM [%] | IC50 [nM] | inhibition at 0.2 µM (test concentration of 0.2 μm, read-out: percent inhibition (symbol b)) [%]
19 | NS(=O)(=O)c1ccccc1-c1ccc2[nH]c(COc3ccccc3F)nc2c1 [Cpd 3, 2-[2-(2-fluoro-phenoxymethyl)-1H-benzoimidazol-5-yl]-benzenesulfonamide] | 43 |  | 
20 | NS(=O)(=O)c1ccccc1-c1ccc2[nH]c(COc3cccc(F)c3)nc2c1 [Cpd 4, 2-[2-(3-fluoro-phenoxymethyl)-1H-benzoimidazol-5-yl]-benzenesulfonamide] | 67 |  | 
21 | NS(=O)(=O)c1ccccc1-c1ccc2[nH]c(COc3ccc(F)cc3)nc2c1 [Cpd 5, 2-[2-(4-fluoro-phenoxymethyl)-1H-benzoimidazol-5-yl]-benzenesulfonamide] | 71 |  | 
22 | NS(=O)(=O)c1ccccc1-c1ccc2[nH]c(COc3cccc(Cl)c3)nc2c1 [Cpd 6, 2-[2-(3-chloro-phenoxymethyl)-1H-benzoimidazol-5-yl]-benzenesulfonamide] | 87 | 102 | 
23 | NS(=O)(=O)c1ccccc1-c1ccc2[nH]c(COc3ccc(Cl)cc3)nc2c1 [Cpd 7, 2-[2-(4-chloro-phenoxymethyl)-1H-benzoimidazol-5-yl]-benzenesulfonamide] |  | 13 | 
24 | NS(=O)(=O)c1ccccc1-c1ccc2[nH]c(COc3ccc(Br)cc3)nc2c1 [Cpd 8, 2-[2-(4-bromo-phenoxymethyl)-1H-benzoimidazol-5-yl]-benzenesulfonamide] |  | 6.6 | 
25 | NS(=O)(=O)c1ccccc1-c1ccc2[nH]c(COc3ccc(F)cc3F)nc2c1 [Cpd 9, 2-[2-(2,4-difluoro-phenoxymethyl)-1H-benzoimidazol-5-yl]-benzenesulfonamide] |  | 110 | 
26 | NS(=O)(=O)c1ccccc1-c1ccc2[nH]c(COc3ccc(F)c(F)c3)nc2c1 [Cpd 10, 2-[2-(3,4-difluoro-phenoxymethyl)-1H-benzoimidazol-5-yl]-benzenesulfonamide] |  | 120 | 
27 | NS(=O)(=O)c1ccccc1-c1ccc2[nH]c(COc3ccc(F)c(Cl)c3)nc2c1 [Cpd 11, 2-[2-(3-chloro-4-fluoro-phenoxymethyl)-1H-benzoimidazol-5-yl]-benzenesulfonamide] |  | 38 | 
28 | NS(=O)(=O)c1ccccc1-c1ccc2[nH]c(COc3ccc(F)c(C(F)(F)F)c3)nc2c1 [Cpd 12, 2-[2-(4-fluoro-3-trifluoromethyl-phenoxymethyl)-1H-benzoimidazol-5-yl]-benzenesulfonamide] |  | 18 | 
29 | NS(=O)(=O)c1ccccc1-c1ccc2[nH]c(COc3cccc(C(F)(F)F)c3)nc2c1 [Cpd 13, 2-[2-(3-trifluoromethyl-phenoxymethyl)-1H-benzoimidazol-5-yl]-benzenesulfonamide] |  | 61 | 
30 | NS(=O)(=O)c1ccccc1-c1ccc2[nH]c(COc3ccc(F)c(F)c3F)nc2c1 [Cpd 14, 2-[2-(2,3,4-trifluoro-phenoxymethyl)-1H-benzoimidazol-5-yl]-benzenesulfonamide] |  | 110 | 
31 | NS(=O)(=O)c1ccccc1-c1ccc2[nH]c(COc3cccc(OC(F)(F)F)c3)nc2c1 [Cpd 15, 2-[2-(3-trifluoromethoxy-phenoxymethyl)-1H-benzoimidazol-5-yl]-benzenesulfonamide] |  | 25 | 
32 | CNS(=O)(=O)c1ccccc1-c1ccc2[nH]c(COc3ccc(Cl)cc3)nc2c1 [Cpd 18, 2-[2-(4-chloro-phenoxymethyl)-1H-benzoimidazol-5-yl]-N-methyl-benzenesulfonamide] | 97 | 71 | 
33 | CNS(=O)(=O)c1ccccc1-c1ccc2[nH]c(COc3ccc(S(C)(=O)=O)cc3)nc2c1 [Cpd 19, 2-[2-(4-methanesulfonyl-phenoxymethyl)-1H-benzoimidazol-5-yl]-N-methyl-benzenesulfonamide] | 100 | 8 | 
34 | CNS(=O)(=O)c1ccccc1-c1ccc2[nH]c(COc3ccc(S(=O)(=O)C(F)(F)F)cc3)nc2c1 [Cpd 20, N-methyl-2-[2-(4-trifluoromethanesulfonyl-phenoxymethyl)-1H-benzoimidazol-5-yl]-benzenesulfonamide] | 100 | 20 | 
35 | CC(C)(O)c1ccccc1-c1ccc2[nH]c(COc3ccc(OC(F)(F)F)cc3)nc2c1 [Cpd 22, 2-{2-[2-(4-trifluoromethoxy-phenoxymethyl)-1H-benzoimidazol-5-yl]-phenyl}-propan-2-ol] | 100 | 4 | 
